Test results as given in patent US7893074B2, “2, 4-pyrimidinediamines useful in the treatment of neoplastic diseases, inflammatory and immune system disorders” (Novartis AG, priority 2003, dated 2011).
Like-named read-outs stand apart in the source and are kept apart here.

Assays:
FAK = FAK (Mus musculus, UniProt P34152); assay: Phos IC50 (phosphorylation); type: cell-based
[1] = test system: Mouse mammary carcinoma 4T1 cells; assay: Anchorage-independent tumor cell growth assay; type: cell-based
Protocol: Cells are cultured for 2 h and inhibitors are added at various concentrations in a final concentration of 0.1% DMSO. After 48 h, cell growth is assayed with the cell counting kit-8 (Wako Pure Chemical), which uses a water soluble tetrazolium salt WST8. Twenty μL of the reagent is added into each well and cells are further cultured for 2 h. The optical density is measured at 450 nm.

IGF-IR = IGF-IR (Homo sapiens, UniProt P08069); assay: Cellular Capture ELISA of IGF-I induced autophosphorylation of the IGF-IR; type: cell-based; details: read-out: IGF-1R IC50
Protocol: In this assay the activity of the compounds of the invention against Insulin-like growth factor I (IGF-I) induced autophosphorylation of the IGF-IR is determined.

[2] = target: Focal Adhesion Kinase (FAK) (Homo sapiens, UniProt Q05397); assay: FAK assay system (Focal Adhesion Kinase inhibition); type: biochemical
Focal Adhesion Kinase (FAK), sequence (Q05397 384-706): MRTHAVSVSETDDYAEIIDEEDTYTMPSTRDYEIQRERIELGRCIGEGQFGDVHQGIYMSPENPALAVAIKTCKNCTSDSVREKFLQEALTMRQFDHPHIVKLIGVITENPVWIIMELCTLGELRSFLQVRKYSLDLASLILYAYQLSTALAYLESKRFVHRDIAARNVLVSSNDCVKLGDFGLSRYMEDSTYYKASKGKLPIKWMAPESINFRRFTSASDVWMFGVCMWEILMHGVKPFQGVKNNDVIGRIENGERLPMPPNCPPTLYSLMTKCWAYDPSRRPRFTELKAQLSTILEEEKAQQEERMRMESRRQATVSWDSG

FAK, sequence (P34152 2-1052): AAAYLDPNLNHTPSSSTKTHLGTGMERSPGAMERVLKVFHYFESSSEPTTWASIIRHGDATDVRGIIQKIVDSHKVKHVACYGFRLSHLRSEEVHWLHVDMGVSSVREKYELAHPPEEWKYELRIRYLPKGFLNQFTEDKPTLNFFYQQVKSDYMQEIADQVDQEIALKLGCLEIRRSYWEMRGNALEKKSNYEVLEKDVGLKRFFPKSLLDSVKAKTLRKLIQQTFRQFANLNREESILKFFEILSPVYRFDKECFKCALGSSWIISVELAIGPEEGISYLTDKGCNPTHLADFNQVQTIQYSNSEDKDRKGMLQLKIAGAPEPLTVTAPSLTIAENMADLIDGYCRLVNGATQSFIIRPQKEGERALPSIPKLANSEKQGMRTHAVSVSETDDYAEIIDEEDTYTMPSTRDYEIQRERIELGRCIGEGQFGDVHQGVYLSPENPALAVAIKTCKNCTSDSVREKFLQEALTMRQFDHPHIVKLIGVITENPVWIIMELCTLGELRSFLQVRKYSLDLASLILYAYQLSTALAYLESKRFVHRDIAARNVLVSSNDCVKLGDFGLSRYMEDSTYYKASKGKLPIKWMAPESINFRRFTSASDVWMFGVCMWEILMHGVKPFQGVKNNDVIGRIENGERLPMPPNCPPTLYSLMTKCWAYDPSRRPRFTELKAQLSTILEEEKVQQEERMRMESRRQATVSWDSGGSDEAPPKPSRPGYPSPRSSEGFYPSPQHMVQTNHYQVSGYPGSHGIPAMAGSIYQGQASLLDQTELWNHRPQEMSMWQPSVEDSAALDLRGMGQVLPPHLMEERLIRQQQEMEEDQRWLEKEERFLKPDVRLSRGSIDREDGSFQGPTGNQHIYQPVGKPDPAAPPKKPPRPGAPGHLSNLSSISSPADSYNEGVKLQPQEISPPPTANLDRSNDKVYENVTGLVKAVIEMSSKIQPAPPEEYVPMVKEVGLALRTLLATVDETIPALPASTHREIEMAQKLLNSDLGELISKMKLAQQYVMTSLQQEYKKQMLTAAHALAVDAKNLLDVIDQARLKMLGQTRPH
IGF-IR, sequence (P08069 31-1367): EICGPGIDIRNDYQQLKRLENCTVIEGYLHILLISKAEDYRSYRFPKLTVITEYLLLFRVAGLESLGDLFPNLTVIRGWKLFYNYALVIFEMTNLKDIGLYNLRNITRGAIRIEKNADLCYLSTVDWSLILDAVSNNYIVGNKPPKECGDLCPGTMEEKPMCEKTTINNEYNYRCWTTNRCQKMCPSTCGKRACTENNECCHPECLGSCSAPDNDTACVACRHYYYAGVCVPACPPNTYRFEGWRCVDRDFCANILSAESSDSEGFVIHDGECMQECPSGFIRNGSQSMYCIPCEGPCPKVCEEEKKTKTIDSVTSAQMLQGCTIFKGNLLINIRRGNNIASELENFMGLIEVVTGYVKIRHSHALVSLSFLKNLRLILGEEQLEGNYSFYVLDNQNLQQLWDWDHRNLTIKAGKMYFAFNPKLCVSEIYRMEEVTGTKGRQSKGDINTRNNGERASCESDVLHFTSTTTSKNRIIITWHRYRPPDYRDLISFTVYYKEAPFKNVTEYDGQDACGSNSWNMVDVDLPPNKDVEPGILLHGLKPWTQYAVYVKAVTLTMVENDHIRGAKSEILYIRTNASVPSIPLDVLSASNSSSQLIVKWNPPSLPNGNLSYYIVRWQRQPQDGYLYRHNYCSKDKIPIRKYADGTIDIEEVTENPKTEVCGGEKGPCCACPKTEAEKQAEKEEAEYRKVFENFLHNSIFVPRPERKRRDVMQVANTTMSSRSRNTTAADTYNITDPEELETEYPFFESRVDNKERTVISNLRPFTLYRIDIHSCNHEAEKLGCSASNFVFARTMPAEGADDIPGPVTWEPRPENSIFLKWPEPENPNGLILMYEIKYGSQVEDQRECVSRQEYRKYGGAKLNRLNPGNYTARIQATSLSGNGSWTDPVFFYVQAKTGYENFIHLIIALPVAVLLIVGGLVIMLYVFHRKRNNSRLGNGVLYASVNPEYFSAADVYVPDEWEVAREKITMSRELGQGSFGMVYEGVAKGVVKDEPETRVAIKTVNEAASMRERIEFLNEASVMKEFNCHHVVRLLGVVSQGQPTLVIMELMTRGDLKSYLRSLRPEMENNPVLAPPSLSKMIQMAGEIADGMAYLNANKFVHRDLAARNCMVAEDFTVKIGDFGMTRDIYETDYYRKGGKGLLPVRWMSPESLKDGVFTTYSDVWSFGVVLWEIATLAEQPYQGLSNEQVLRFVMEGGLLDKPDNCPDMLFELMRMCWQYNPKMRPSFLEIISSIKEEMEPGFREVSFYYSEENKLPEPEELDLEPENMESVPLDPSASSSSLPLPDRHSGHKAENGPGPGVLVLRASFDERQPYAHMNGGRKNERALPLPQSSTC

Row | Structure (SMILES) | IC50 (FAK) | IC50 ([1]; Mus musculus, 4T1) | IC50 (IGF-IR) | IC50 ([2]; read-out: FAK IC50) | IC50 [1] | IC50 ([2]; FAK IC50)
1 | CCNC(=O)c1ccccc1Nc1nc(Nc2ccc(N3CCOCC3)cc2OC)ncc1Cl [Example 9-5] | 360 nM |  | 600 nM | 22 nM | 1600 nM | 
2 | CNS(=O)(=O)c1ccccc1Nc1nc(Nc2cccc3cn[nH]c23)ncc1Br [Example 3-13] |  | 600 nM | 740 nM |  |  | 58 nM
3 | CNS(=O)(=O)c1cc(F)ccc1Nc1nc(Nc2ccc(N3CCOCC3)cc2OC)ncc1Br [Example 52, 2-[5-Bromo-2-(2-methoxy-4-morpholin-4-yl-phenylamino)-pyrimidin-4-ylamino]-5-fluoro-N-methyl-benzenesulfonamide] | 200 nM | 410 nM | < 80 nM | 13 nM |  | 
4 | CNS(=O)(=O)c1ccccc1Nc1nc(Nc2ccc(-n3ccnc3C)cc2OC)ncc1Br [Example 3-83] |  | 320 nM | 680 nM |  |  | 20 nM
5 | CNS(=O)(=O)c1ccccc1Nc1nc(Nc2cc(-c3ccc(OC)cc3)ccc2C)ncc1Br [Example 3-25] | 300 nM | 300 nM | 810 nM | 22 nM |  | 
6 | CNS(=O)(=O)c1ccccc1Nc1nc(Nc2ccc(F)cc2OC)ncc1Br [Example 3-80] | 220 nM | 450 nM | 5000 nM | 12 nM |  | 
7 | COc1cc(N2CCOCC2)ccc1Nc1ncc(Br)c(Nc2ccccc2S(=O)(=O)N(C)C)n1 [Example 51, 2-[5-bromo-2-(2-methoxy-4-morpholin-4-yl-phenylamino)-pyrimidin-7-ylamino]-N,N-dimethyl-benznensulfonamide] | 13 nM | 190 nM | 200 nM | 8.1 nM |  | 
8 | CNC(=O)c1ccccc1Nc1nc(Nc2ccc(OC3CCN(C)CC3)cc2OC)ncc1Cl [Example 7-5] | 300 nM | 200 nM | 250 nM | 6.2 nM |  | 
9 | COc1cc(N2CCC(N(C)C(C)=O)C2)ccc1Nc1ncc(Cl)c(Nc2ccccc2S(=O)(=O)NC(C)C)n1 (stereo not shown) [Example 19-14] |  | 1130 nM | 440 nM |  |  | 2.6 nM
10 | CNS(=O)(=O)c1ccccc1Nc1nc(Nc2cc(-c3ccncc3)ccc2C)ncc1Br [Example 3-54] | 10 nM |  | < 80 nM | 0.9 nM |  | 
11 | CCCS(=O)(=O)c1ccccc1Nc1nc(Nc2ccc(N3CCC(C(N)=O)CC3)cc2OC)ncc1Cl [Example 26-5] |  | 230 nM | 1500 nM |  |  | 2.1 nM
12 | COc1cc(N2CCOCC2)ccc1Nc1ncc(Cl)c(Nc2ccccc2S(C)(=O)=O)n1 [Example 31-2] |  | 290 nM | 420 nM |  |  | 31 nM
13 | CNS(=O)(=O)c1ccccc1Nc1nc(Nc2cc(OC)ccc2OCCOC)ncc1Br [Example 3-59] | 1200 nM | > 10000 nM |  | 95 nM |  | 
14 | CNS(=O)(=O)c1ccccc1Nc1nc(Nc2ccc(N3CCSCC3)cc2OC)ncc1Br [Example 3-41] | > 10000 nM | 430 nM |  | 22 nM |  | 
15 | CNS(=O)(=O)c1ccccc1Nc1nc(Nc2ccccc2C)ncc1Br [Example 3-7] | 450 nM | 2000 nM |  | 16 nM |  | 
16 | COc1cc(OCC2CCCN(C)C2)ccc1Nc1ncc(Cl)c(Nc2ccccc2S(=O)(=O)NC(C)C)n1 (stereo not shown) [Example 19-3] |  | 90 nM | 640 nM |  |  | < 1 nM
17 | CNC(=O)c1cc(N2CCN(C)CC2)ccc1Nc1nc(Nc2ccc(F)cc2OC)ncc1Cl [Example 16-2] | > 10000 nM | 600 nM |  | 6 nM |  | 
18 | CCNC1CCN(c2ccc(Nc3ncc(Cl)c(Nc4ccccc4S(=O)(=O)NC(C)C)n3)c(OC)c2)C1 (stereo not shown) [Example 19-2] |  | 380 nM | 910 nM |  |  | 1.6 nM
19 | CNS(=O)(=O)c1ccccc1Nc1nc(Nc2cc(OC)ccc2C)ncc1Br [Example 3-3] | 140 nM | 800 nM |  | 9.1 nM |  | 
20 | CNS(=O)(=O)c1ccccc1Nc1nc(Nc2ccc(C)cc2F)ncc1Br [Example 3-4] | 530 nM | 2000 nM |  | 32 nM |  | 
21 | CNS(=O)(=O)c1ccccc1Nc1nc(Nc2cc(-c3ccccc3)ccc2OC)ncc1Br [Example 3-9] | 500 nM | 700 nM |  | 48 nM |  | 
22 | CNC(=O)c1cc(N2CCC(N3CCCCC3)CC2)ccc1Nc1nc(Nc2ccc(F)cc2OC)ncc1Cl [Example 16-4] | > 10000 nM | 920 nM |  | 9.5 nM |  | 
23 | CNS(=O)(=O)c1ccccc1Nc1nc(Nc2cc(C(=O)N3CCNCC3)ccc2C)ncc1Br [Example 3-24] | 3500 nM | 5000 nM |  | 64 nM |  | 
24 | CNS(=O)(=O)c1ccccc1Nc1nc(Nc2ccc(OCCCN3CCN(C)CC3)cc2OC)ncc1Br [Example 3-72] | 110 nM | 60 nM |  | 2.1 nM |  | 
25 | CNS(=O)(=O)c1ccccc1Nc1nc(Nc2ccc(OCCCN3CCOCC3)cc2C)ncc1Br [Example 3-71] | 50 nM | 80 nM |  | 11 nM |  | 
26 | CNC(=O)c1ccccc1Nc1nc(Nc2ccc(OCC3CCN(C)CC3)cc2OC)ncc1Cl [Example 7-20] | > 10000 nM | 110 nM |  | 2.5 nM |  | 
27 | CCNC(=O)c1cc(F)ccc1Nc1nc(Nc2ccc(N3CCOCC3)cc2OC)ncc1Cl [Example 14-5] | > 10000 nM | 1000 nM |  | 37 nM |  | 

The next lines start with results.

Row | IC50 (FAK) | IC50 ([1]; Mus musculus, 4T1) | IC50 (IGF-IR) | IC50 ([2]; read-out: FAK IC50) | IC50 [1] | Structure (SMILES) | IC50 ([2]; FAK IC50)
28 | 300 nM | 80 nM | 670 nM | 7.6 nM |  | CCN1CCC(Oc2ccc(Nc3ncc(Cl)c(Nc4ccccc4S(=O)(=O)NC)n3)c(OC)c2)C1 (stereo not shown) [Example 20-30] | 
29 | 900 nM | 1070 nM | 600 nM | 1.2 nM |  | CCNC1CCN(c2ccc(Nc3ncc(Cl)c(Nc4ccccc4S(=O)(=O)NC(CC)CC)n3)c(OC)c2)C1 (stereo not shown) [Example 23-4] | 
30 | 60 nM | 250 nM | 100 nM | 5.2 nM |  | COc1cc(N2CCOCC2)ccc1Nc1ncc(Cl)c(Nc2ccccc2S(=O)(=O)C2CCCC2)n1 [Example 33-2] | 
31 | 100 nM | 50 nM | 380 nM | 3 nM |  | CNS(=O)(=O)c1ccccc1Nc1nc(Nc2ccc(N3CCNCC3)cc2OC)ncc1Cl [Example 20-7] | 
32 | 90 nM | 150 nM | 260 nM | 6.6 nM |  | COc1cc(N2CCOCC2)ccc1Nc1ncc(Cl)c(Nc2ccccc2S(=O)(=O)NCC(C)C)n1 [Example 22-3] | 
33 | > 10000 nM | 2000 nM |  | 38 nM |  | COc1c(Nc2ncc(Cl)c(Nc3ccccc3S(=O)(=O)NC(C)C)n2)ccc(N2CCOCC2)c1F [Example 19-11] | 
34 | 700 nM | 230 nM |  | 6.1 nM |  | CNC(=O)c1cc(N2CCN(C)CC2)ccc1Nc1nc(Nc2cccc3c2ccn3C)ncc1Cl [Example 35-2] | 
35 |  |  | 100 nM | 3.12 nM |  | CNS(=O)(=O)c1ccccc1Nc1nc(Nc2cc(N3CCC(N(C)C)C3)ccc2OC)ncc1Cl (stereo not shown) [Example 20-20] | 
36 | 6000 nM |  |  | 1.3 nM | 1170 nM | CCCS(=O)(=O)c1ccccc1Nc1nc(Nc2ccc(OCCN3CCCC3=O)cc2OC)ncc1Cl [Example 26-18] | 
37 | 70 nM |  |  | 1 nM | 190 nM | CCC(C)NS(=O)(=O)c1ccccc1Nc1nc(Nc2ccc(N3CCN(C)CC3)cc2OC)ncc1Cl (stereo not shown) [Example 21-1] | 
38 | 300 nM | 10 nM |  | 2 nM |  | CNS(=O)(=O)c1ccccc1Nc1nc(Nc2cccc3c2ccn3CCCN2CCN(C)CC2)ncc1Cl [Example 20-9] | 
39 | 600 nM |  |  | 4.8 nM | 1490 nM | CCCS(=O)(=O)c1ccccc1Nc1nc(Nc2ccc(N3CCC(CO)CC3)cc2OC)ncc1Cl [Example 26-27] | 
40 | 1000 nM | 570 nM |  | 16 nM |  | CCC(CC)NS(=O)(=O)c1ccccc1Nc1nc(Nc2ccc(N3CCOCC3)cc2OC)ncc1Cl [Example 23-6] | 
41 | 160 nM | 1900 nM |  | 15 nM |  | COc1cc(N2CCC(OC)C2)ccc1Nc1ncc(Cl)c(Nc2ccccc2S(=O)(=O)C(C)C)n1 (stereo not shown) [Example 28-17] | 
42 | 80 nM | 1170 nM |  | 11 nM |  | COc1cc(N2CCOCC2)ccc1Nc1ncc(Cl)c(Nc2ccccc2S(=O)(=O)C2CCCCC2)n1 [Example 34-2] | 
43 | 200 nM | 890 nM |  | 22 nM |  | COc1cc(N2CCOCC2)ccc1Nc1ncc(Cl)c(Nc2ccccc2S(=O)(=O)C2CC2)n1 [Example 30-1] | 
44 | 100 nM | 300 nM |  | 1.3 nM |  | COc1cc(N2CCC(N(C)C)C2)ccc1Nc1ncc(Cl)c(Nc2ccccc2S(=O)(=O)C(C)C)n1 (stereo not shown) [Example 28-22] | 
45 | 1000 nM | 120 nM |  | 13 nM |  | CNS(=O)(=O)c1ccccc1Nc1nc(Nc2cc(N3CCN(C(C)=O)CC3)ccc2OC)ncc1Cl [Example 20-34] | 
46 | > 10000 nM | 1600 nM |  | 30 nM |  | COc1cc(F)ccc1Nc1ncc(Cl)c(Nc2ccccc2S(C)(=O)=O)n1 [Example 31-1] | 
47 | 60 nM | 1060 nM |  | 7.4 nM |  | CC(C)S(=O)(=O)c1ccccc1Nc1nc(Nc2cccc3c2OCC3)ncc1Cl [Example 28-31] | 
48 | 300 nM | 400 nM |  | 1.5 nM |  | COc1cc(N2CCC(N3CCCCC3)CC2)ccc1Nc1ncc(Cl)c(Nc2ccccc2S(=O)(=O)NC(C)C)n1 [Example 19-27] | 
